Reference: PubChem BioAssay AID2060508 (Molecular Pharmacology Branch, DTP, NCI, 2025)
pIC50: −log10 of the molar value. One block for each compound: values may come before it.

System: 454973-116-R2-J3-PDC spheroids, viability, % test/control
Assay: Anticancer human tumor 454973-116-R2-J3-PDC patient-derived pancreatic carcinoma cell line growth inhibition [GQUAD]
Conditions: spheroids with HUVEC and MSC; for pIC50: curve of first compound; for viability, T/C: stronger effect = lower value
Text: DNA G-quadruplex Stabilizer Agents in Combinations in Complex Spheroids
A high-throughput screen of multi-cell type tumor spheroids was designed to identify active combinations of DNA G-quadruplex stabilizer agents and targeted small molecules. Complex spheroids include a stromal component modeled by human endothelial cells (HUVEC) and fibroblasts modeled by human mesenchymal stem cells (MSCs). The concentration ranges selected for each drug and investigational agent were based upon clinically achievable concentrations if the clinical Cmax of the agent was known.
Compounds. The drugs and investigational agents: pidnarulex (CX-5461; NSC782164), APTO-253 (NSC789042), BRACO-19 (NSC847499), peposertib (NSC802822), ceralasertib (NSC780249), elimusertib (NSC800525), camonsertib (NSC841442), AZD-1390 (NSC803789), olaparib (NSC753686), talazoparib (NSC767125), ART-558 (NSC835418), sotorasib (NSC818433), MRTX-1133 (NSC836407), SN-38 (NSC673596), topotecan (NSC609699), etoposide (NSC141540), doxorubicin (NSC123127), gemcitabine (NSC613327), 5-fluorouracil (NSC19893), paclitaxel (NSC125973), vemurafenib (NSC761431), panobinostat (NSC761190), R-306465 (JNJ-16241199; NSC773264), adavosertib (NSC754352), TP-3654 (NSC805149), carboplatin (NSC241240), KSQ-4279 (NSC840948), and staurosporine (NSC755774) were obtained from the National Cancer Institute (NCI) Developmental Therapeutics Program Chemical Repository (34). The FDA-approved anticancer drug set is available from the NCI Developmental Therapeutics Program. […] The stock solutions were prepared in dimethyl sulfoxide (DMSO, Sigma-Aldrich, St. Louis, MO, cat. D2650) at 800-fold the tested concentration and stored at -70 degrees C prior to their use. All drugs and investigational agents were tested over a range starting from a high concentration at or near the clinical Cmax and decreasing in half-log increments. If the clinical Cmax for an agent had not been determined, the highest concentration tested was 10 microM.
2.3 Cell Culture. All cells were maintained in an incubator at 37 degrees C and 5% CO2 with 95% humidity. The PDC lines were cultured according to standard operating procedures established by the NCI PDMR. All PDCs were thawed and cultured in Matrigel-coated flasks prepared with a working solution of 1X Ham's F-12 nutrient mix, without supplementation (Invitrogen, cat. 11765054), 100 U/mL penicillin-streptomycin (Invitrogen, cat. 15140122), and 2.5% Matrigel (Corning Inc., cat. 354248) for the first three passages. The 857933-349-R-J2-PDC line was cultured in 6C/Colon 1B media, which includes advanced DMEM/F-12 (Thermo Fisher Scientific, cat. 12634028), 10 mM HEPES (Thermo Fisher Scientific, cat. 15630080), 1X GlutaMAX supplement (Thermo Fisher Scientific, cat. 35050061), 0.1 mg/mL primocin (InvivoGen, cat. ant-pm-2), 10% defined fetal bovine serum, heat inactivated (HyClone Laboratories Inc., cat. SH30070.03HI), 50% L-WRN conditioned media (ATCC, cat. CRL-3276), 1.25 mM N-Acetyl-L-cysteine (Sigma-Aldrich, cat. A9165), 10 mM nicotinamide (Sigma-Aldrich, cat. N0636), 1X B-27 supplement (Thermo Fisher Scientific, cat. 17504044), 1X N-2 supplement (Thermo Fisher Scientific, cat. 17502048), 10 microM Y-27632 dihydrochloride (Tocris Bioscience, cat. 1254), and 50 ng/mL human EGF recombinant protein (Thermo Fisher Scientific, cat. PHG0311). The 485176-168-R4-J1-PDC line was cultured in Panc media, which includes all 6C/Colon 1B media components plus 100 ng/mL human FGF-10 (Thermo Fisher Scientific, cat. 100-26), 500 nM SB-431542 (Selleckchem, cat. S1067), and gastrin (Tocris, cat. 3006).
[…]

[1] = second compound 0.0316 µM, first compound 0.0316 µM
[2] = second compound 0.0316 µM, first compound 0.1 µM
[3] = second compound 0.0316 µM, first compound 0.316 µM
[4] = second compound 0.0316 µM, first compound 1 µM
[5] = second compound 0.0316 µM, first compound 3.16 µM
[6] = second compound 0.0316 µM, first compound 10 µM
[7] = second compound 0.1 µM, first compound 0.0316 µM
[8] = second compound 0.1 µM, first compound 0.1 µM
[9] = second compound 0.1 µM, first compound 0.316 µM
[10] = second compound 0.1 µM, first compound 1 µM
[11] = second compound 0.1 µM, first compound 3.16 µM
[12] = second compound 0.1 µM, first compound 10 µM
[13] = second compound 0.316 µM, first compound 0.0316 µM
[14] = second compound 0.316 µM, first compound 0.1 µM
[15] = second compound 0.316 µM, first compound 0.316 µM
[16] = second compound 0.316 µM, first compound 1 µM
[17] = second compound 0.316 µM, first compound 3.16 µM
[18] = second compound 0.316 µM, first compound 10 µM
[19] = second compound 1 µM, first compound 0.0316 µM
[20] = second compound 1 µM, first compound 0.1 µM
[21] = second compound 1 µM, first compound 0.316 µM
[22] = second compound 1 µM, first compound 1 µM
[23] = second compound 1 µM, first compound 3.16 µM
[24] = second compound 1 µM, first compound 10 µM
[25] = second compound 3.16 µM, first compound 0.0316 µM
[26] = second compound 3.16 µM, first compound 0.1 µM
[27] = second compound 3.16 µM, first compound 0.316 µM
[28] = second compound 3.16 µM, first compound 1 µM
[29] = second compound 3.16 µM, first compound 3.16 µM
[30] = second compound 3.16 µM, first compound 10 µM
[31] = second compound 10 µM, first compound 0.0316 µM
[32] = second compound 10 µM, first compound 0.1 µM
[33] = second compound 10 µM, first compound 0.316 µM
[34] = second compound 10 µM, first compound 1 µM
[35] = second compound 10 µM, first compound 3.16 µM
[36] = second compound 10 µM, first compound 10 µM
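Also: spheroids exposed to compounds for seven days.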

Structure (SMILES): C#Cc1c(F)ccc2cc(O)cc(-c3ncc4c(N5CC6CCC(C5)N6)nc(OCC56CCCN5CC(F)C6)nc4c3F)c12 (stereo not drawn) + Cc1[nH]c2ccc(F)cc2c1-c1nc2c3cccnc3c3ncccc3c2[nH]1
pIC50 (second compound 0.0316 µM): 7.26
pIC50 (second compound 0.1 µM): 7.14
pIC50 (second compound 0.316 µM): 7.25
pIC50 (second compound 1 µM): 7.24
pIC50 (second compound 3.16 µM): 7.46
pIC50 (second compound 10 µM): > 7.50
viability, T/C [1]: 59.5%
viability, T/C [2]: 40.2%
viability, T/C [3]: 27.5%
viability, T/C [4]: 25.1%
viability, T/C [5]: 21.5%
viability, T/C [6]: 15.5%
viability, T/C [7]: 63.5%
viability, T/C [8]: 43.4%
viability, T/C [9]: 34.5%
viability, T/C [10]: 24.4%
viability, T/C [11]: 21.9%
viability, T/C [12]: 17%
viability, T/C [13]: 57.2%
viability, T/C [14]: 45.2%
viability, T/C [15]: 27.7%
viability, T/C [16]: 23.9%
viability, T/C [17]: 29.6%
viability, T/C [18]: 17.5%
viability, T/C [19]: 58.6%
viability, T/C [20]: 41.8%
viability, T/C [21]: 29.8%
viability, T/C [22]: 22.9%
viability, T/C [23]: 17.6%
viability, T/C [24]: 15.4%
viability, T/C [25]: 52.1%
viability, T/C [26]: 35.5%
viability, T/C [27]: 27.2%
viability, T/C [28]: 21.1%
viability, T/C [29]: 19.6%
viability, T/C [30]: 12.8%
viability, T/C [31]: 48.1%
viability, T/C [32]: 36.9%
viability, T/C [33]: 26.2%
viability, T/C [34]: 17.6%
viability, T/C [35]: 16.8%
viability, T/C [36]: 12.3%

pIC50 (second compound 0.0316 µM): 6.72
pIC50 (second compound 0.1 µM): 6.92
pIC50 (second compound 0.316 µM): 6.96
pIC50 (second compound 1 µM): 6.58
pIC50 (second compound 3.16 µM): 6.73
pIC50 (second compound 10 µM): > 7.50
Structure (SMILES): C=CCn1c(=O)c2cnc(Nc3ccc(N4CCN(C)CC4)cc3)nc2n1-c1cccc(C(C)(C)O)n1 + Cc1cnc(CNC(=O)c2c(=O)c3ccc(N4CCCN(C)CC4)nc3n3c2sc2ccccc23)cn1
viability, T/C [1]: 98%
viability, T/C [2]: 78.8%
viability, T/C [3]: 27%
viability, T/C [4]: 11.7%
viability, T/C [5]: 6.73%
viability, T/C [6]: 10.2%
viability, T/C [7]: 76.5%
viability, T/C [8]: 53.6%
viability, T/C [9]: 29.8%
viability, T/C [10]: 12%
viability, T/C [11]: 8.47%
viability, T/C [12]: 8.54%
viability, T/C [13]: 57.6%
viability, T/C [14]: 49.7%
viability, T/C [15]: 37.2%
viability, T/C [16]: 18.1%
viability, T/C [17]: 9.06%
viability, T/C [18]: 9.69%
viability, T/C [19]: 60.9%
viability, T/C [20]: 59.2%
viability, T/C [21]: 48.2%
viability, T/C [22]: 22.4%
viability, T/C [23]: 13.7%
viability, T/C [24]: 13.6%
viability, T/C [25]: 58.3%
viability, T/C [26]: 63.1%
viability, T/C [27]: 40.8%
viability, T/C [28]: 23.9%
viability, T/C [29]: 18.2%
viability, T/C [30]: 21.9%
viability, T/C [31]: 0.34%
viability, T/C [32]: 20.9%
viability, T/C [33]: 23.4%
viability, T/C [34]: 0.26%
viability, T/C [35]: 0.3%
viability, T/C [36]: 0.38%

pIC50 (second compound 0.0316 µM): > 7.50
pIC50 (second compound 0.1 µM): > 7.50
pIC50 (second compound 0.316 µM): > 7.50
pIC50 (second compound 1 µM): > 7.50
pIC50 (second compound 3.16 µM): > 7.50
pIC50 (second compound 10 µM): > 7.50
Structure (SMILES): CC(=O)O[C@H]1C(=O)[C@@]2(C)[C@H]([C@H](OC(=O)c3ccccc3)[C@]3(O)C[C@H](OC(=O)[C@H](O)[C@@H](NC(=O)c4ccccc4)c4ccccc4)C(C)=C1C3(C)C)[C@]1(OC(C)=O)CO[C@@H]1C[C@@H]2O + Cc1cnc(CNC(=O)c2c(=O)c3ccc(N4CCCN(C)CC4)nc3n3c2sc2ccccc23)cn1
viability, T/C [1]: 17.2%
viability, T/C [2]: 12.7%
viability, T/C [3]: 10.7%
viability, T/C [4]: 7.9%
viability, T/C [5]: 9.07%
viability, T/C [6]: 11.3%
viability, T/C [7]: 20.6%
viability, T/C [8]: 16.3%
viability, T/C [9]: 9.56%
viability, T/C [10]: 9.77%
viability, T/C [11]: 11.2%
viability, T/C [12]: 15.5%
viability, T/C [13]: 27.5%
viability, T/C [14]: 17.2%
viability, T/C [15]: 17.9%
viability, T/C [16]: 15.7%
viability, T/C [17]: 15.3%
viability, T/C [18]: 19.6%
viability, T/C [19]: 33.9%
viability, T/C [20]: 28.3%
viability, T/C [21]: 23.3%
viability, T/C [22]: 25.7%
viability, T/C [23]: 24.8%
viability, T/C [24]: 30.4%
viability, T/C [25]: 42.4%
viability, T/C [26]: 36.2%
viability, T/C [27]: 32.1%
viability, T/C [28]: 26.5%
viability, T/C [29]: 34.1%
viability, T/C [30]: 37.1%
viability, T/C [31]: 0.12%
viability, T/C [32]: 1.08%
viability, T/C [33]: 0.19%
viability, T/C [34]: 0.17%
viability, T/C [35]: 0.19%
viability, T/C [36]: 0.21%

pIC50 (second compound 0.0316 µM): 5.19
pIC50 (second compound 0.1 µM): 5.22
pIC50 (second compound 0.316 µM): 5.29
pIC50 (second compound 1 µM): 5.37
pIC50 (second compound 3.16 µM): 5.29
pIC50 (second compound 10 µM): > 7.50
Structure (SMILES): CCCS(=O)(=O)Nc1ccc(F)c(C(=O)c2c[nH]c3ncc(-c4ccc(Cl)cc4)cc23)c1F + Cc1cnc(CNC(=O)c2c(=O)c3ccc(N4CCCN(C)CC4)nc3n3c2sc2ccccc23)cn1
viability, T/C [1]: 94.2%
viability, T/C [2]: 105%
viability, T/C [3]: 117%
viability, T/C [4]: 106%
viability, T/C [5]: 117%
viability, T/C [6]: 14.1%
viability, T/C [7]: 77.4%
viability, T/C [8]: 88%
viability, T/C [9]: 99%
viability, T/C [10]: 94.6%
viability, T/C [11]: 95.2%
viability, T/C [12]: 17.3%
viability, T/C [13]: 70.7%
viability, T/C [14]: 73.4%
viability, T/C [15]: 79.5%
viability, T/C [16]: 96%
viability, T/C [17]: 70.9%
viability, T/C [18]: 20.2%
viability, T/C [19]: 65.9%
viability, T/C [20]: 71.9%
viability, T/C [21]: 80.2%
viability, T/C [22]: 66.4%
viability, T/C [23]: 60.2%
viability, T/C [24]: 21.9%
viability, T/C [25]: 55.1%
viability, T/C [26]: 62.2%
viability, T/C [27]: 72.3%
viability, T/C [28]: 67.9%
viability, T/C [29]: 68.3%
viability, T/C [30]: 29.2%
viability, T/C [31]: 0.45%
viability, T/C [32]: 18.1%
viability, T/C [33]: 28.6%
viability, T/C [34]: 35.6%
viability, T/C [35]: 0.54%
viability, T/C [36]: 0.2%
